Measured values reported in article PMC5618409, “Sequence Analysis, Kinetic Constants, and Anion Inhibition Profile of the Nacrein-Like Protein (CgiNAP2X1) from the Pacific Oyster Magallana gigas (Ex-Crassostrea gigas)” (Marine Drugs, 2017).
Read-outs that look alike come from different tables or passages of the source.

Biological target: CgiNAP2X1 (Magallana gigas, UniProt A0A8W8INI3)
Experiment: stopped-flow CO2 hydration assay
Format: biochemical
[1] = read-out: KIs [mM] ^2 / CgiNAP2X1

Sequence of CgiNAP2X1 (A0A8W8INI3 23-318 limits assumed): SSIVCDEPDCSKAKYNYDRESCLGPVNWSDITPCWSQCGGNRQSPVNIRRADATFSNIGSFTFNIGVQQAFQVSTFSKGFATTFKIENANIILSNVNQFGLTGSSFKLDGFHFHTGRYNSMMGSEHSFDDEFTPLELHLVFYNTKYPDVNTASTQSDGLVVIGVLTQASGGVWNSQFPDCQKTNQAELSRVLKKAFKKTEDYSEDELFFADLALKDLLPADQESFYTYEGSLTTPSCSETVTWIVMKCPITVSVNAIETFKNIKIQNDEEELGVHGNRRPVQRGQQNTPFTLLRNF

Ki [1]	Structure (SMILES)	Ki
–	O=S(=O)(O)C(F)(F)F [CF3SO3^−]	8.68 mM
–	N#CO [CNO^−]	3.11 mM
–	Cl [Cl^−]	10.8 mM
–	S [HS^−]	8.19 mM
–	I [I^−]	8.86 mM
–	O=NO [NO2^−]	7.14 mM
–	N#CS [SCN^−]	5.88 mM
–	N#C[SeH] [SeCN^−]	8.21 mM
–	[O]=[Sn]([OH])[OH] [SnO3^2−]	3.47 mM
–	OB(O)c1ccccc1 [phenylboronic acid]	0.072 mM
0.073 mM	NS(=O)(=O)O [sulfamate]	–
0.076 mM	NS(N)(=O)=O [sulfamide]	–
